Laboratory results: patent US20230373939A1 (VERTEX PHARMACEUTICALS INCORPORATED, priority 2020, published 2023)
pEC50: −log10 of the molar value. Like-named read-outs stand apart in the source and are kept apart here.

Target: T1, F508del in NIH 3T3 cells (Homo sapiens, UniProt P13569, DEL508-508)
T1 construct: expressed in transfected cells
Assay: 3T3 assay: membrane potential optical assay for F508del correction
Format: cell-based
Source text: 1. Membrane Potential Optical Methods for Assaying F508del Modulation Properties of Compounds
The assay utilizes fluorescent voltage sensing dyes to measure changes in membrane potential using a fluorescent plate reader (e.g., FLTPR III, Molecular Devices, Inc.) as a readout for increase in functional F508del in NIH 3T3 cells. The driving force for the response is the creation of a chloride ion gradient in conjunction with channel activation by a single liquid addition step after the cells have previously been treated with compounds and subsequently loaded with a voltage sensing dye.
2. Identification of Corrector Compounds
To identify correctors of F508del, a single-addition HTS assay format was developed. This HTS assay utilizes fluorescent voltage sensing dyes to measure changes in membrane potential on the FLIPR III as a measurement for increase in gating (conductance) of F508del in F508del NUT 3T3 cells. The F508del NUT 3T3 cell cultures were incubated with the corrector compounds at a range of concentrations for 18-24 hours at 37° C., and subsequently loaded with a redistribution dye. The driving force for the response is a Cl^− ion gradient in conjunction with channel activation with forskolin in a single liquid addition step using a fluorescent plate reader such as FLIPR III.
Bath Solution #1: (in mM) NaCl 160, KCl 4.5, CaCl2 2, MgCl2 1, HEPES 10, pH 7.4 with NaOH.
Chloride-free bath solution: Chloride salts in Bath Solution #1 (above) are substituted with gluconate salts.
NIH3T3 mouse fibroblasts stably expressing F508del were used for optical measurements of membrane potential. The cells were maintained at 37° C. in 5% CO2 and 90% humidity in Dulbecco's modified Eagle's medium supplemented with 2 mM glutamine, 10% fetal bovine serum, 1×NEAA, b-ME, 1×pen/strep, and 25 mM HEPES in 175 cm^2 culture flasks. For all optical assays, the cells were seeded at ˜20,000/well in 384-well Matrigel-coated plates. For the correction assays, the cells were cultured at 37° C. with and without compounds for 16-24 hours.

[1] = NIH3T3, read-out: 3T3 Max Activity (%)
[2] = NIH 3T3 cells, F508del, read-out: 3T3 EC50
[3] = NIH3T3, NIH 3T3 cells, F508del, read-out: 3T3 Max Activity (%)

T1 sequence (P13569 with tags, fused parts or gaps DEL508-508): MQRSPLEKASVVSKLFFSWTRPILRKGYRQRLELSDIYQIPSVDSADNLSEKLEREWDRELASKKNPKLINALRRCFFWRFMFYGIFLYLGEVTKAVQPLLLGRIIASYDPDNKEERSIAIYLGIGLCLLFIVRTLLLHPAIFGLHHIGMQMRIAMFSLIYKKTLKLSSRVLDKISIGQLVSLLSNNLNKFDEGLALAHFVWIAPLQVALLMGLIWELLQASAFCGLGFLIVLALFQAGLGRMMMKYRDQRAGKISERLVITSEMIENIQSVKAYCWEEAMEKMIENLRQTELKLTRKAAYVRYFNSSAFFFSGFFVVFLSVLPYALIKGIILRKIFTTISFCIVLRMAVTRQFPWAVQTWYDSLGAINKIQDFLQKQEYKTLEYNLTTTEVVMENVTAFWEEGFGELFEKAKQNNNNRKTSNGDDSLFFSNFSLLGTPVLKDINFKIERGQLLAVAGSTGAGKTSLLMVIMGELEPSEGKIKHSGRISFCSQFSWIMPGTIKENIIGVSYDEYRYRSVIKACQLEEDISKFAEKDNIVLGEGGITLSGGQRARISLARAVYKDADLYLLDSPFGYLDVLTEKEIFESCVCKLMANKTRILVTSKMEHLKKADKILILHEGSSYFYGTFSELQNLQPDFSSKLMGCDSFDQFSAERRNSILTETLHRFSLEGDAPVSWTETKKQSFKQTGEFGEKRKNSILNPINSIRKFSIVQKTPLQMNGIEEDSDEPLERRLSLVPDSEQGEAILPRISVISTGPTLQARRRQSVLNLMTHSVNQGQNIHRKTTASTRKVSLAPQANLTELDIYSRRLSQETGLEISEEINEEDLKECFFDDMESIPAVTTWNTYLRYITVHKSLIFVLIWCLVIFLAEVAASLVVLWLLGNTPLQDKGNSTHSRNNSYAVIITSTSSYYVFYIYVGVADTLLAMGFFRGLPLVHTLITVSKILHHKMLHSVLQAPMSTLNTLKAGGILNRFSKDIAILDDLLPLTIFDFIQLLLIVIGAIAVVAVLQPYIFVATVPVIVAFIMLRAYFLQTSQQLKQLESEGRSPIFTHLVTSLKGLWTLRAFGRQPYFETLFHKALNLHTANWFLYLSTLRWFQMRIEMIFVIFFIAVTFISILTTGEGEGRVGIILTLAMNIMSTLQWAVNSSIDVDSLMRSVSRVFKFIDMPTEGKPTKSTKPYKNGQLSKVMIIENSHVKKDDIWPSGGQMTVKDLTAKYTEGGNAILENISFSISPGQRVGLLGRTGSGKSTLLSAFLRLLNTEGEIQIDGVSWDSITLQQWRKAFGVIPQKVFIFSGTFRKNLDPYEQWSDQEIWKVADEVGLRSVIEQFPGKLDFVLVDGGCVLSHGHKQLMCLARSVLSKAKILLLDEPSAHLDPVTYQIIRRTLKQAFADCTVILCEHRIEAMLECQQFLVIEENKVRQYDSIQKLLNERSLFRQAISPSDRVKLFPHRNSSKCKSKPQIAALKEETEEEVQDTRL

| SMILES | Emax [3] [%] | other results |
| --- | --- | --- |
| O=S(=O)(Nc1nn(-c2cccc(Cl)c2)cc1-c1ccccc1)c1ccccc1 [Compound 69, N-[1-(3-chlorophenyl)-4-phenyl-pyrazol-3-yl]benzenesulfonamide] |  | Emax [1]: 30 to 60%; pEC50 [2]: 5.52 to 6.00 |
| O=S(=O)(Nc1nn(-c2cccc(Cl)c2)cc1-c1cccc(Cl)c1)c1ccccc1 [Compound 70, N-[1,4-bis(3-chlorophenyl)pyrazol-3-yl]benzenesulfonamide] |  | pEC50: > 6.00; Emax [1]: 30 to 60% |
| O=S(=O)(Nc1cc(Cc2ccccc2)n(-c2ccccc2)n1)c1ccccc1 [Compound 71, N-(5-benzyl-1-phenyl-pyrazol-3-yl)benzenesulfonamide] | < 30 |  |
| Cn1cc(S(=O)(=O)Nc2nn(-c3ccccc3)cc2Cc2ccccc2)cn1 [Compound 72, N-(4-benzyl-1-phenyl-pyrazol-3-yl)-1-methyl-pyrazole-4-sulfonamide] | < 30 |  |
| Nc1cccc(S(=O)(=O)Nc2nn(-c3ccccc3)cc2Cc2ccccc2)c1 [Compound 73, 3-amino-N-(4-benzyl-1-phenyl-pyrazol-3-yl)benzenesulfonamide] | 30 to 60 |  |
| O=S(=O)(Nc1nn(-c2ccccc2)cc1Cc1ccccc1)c1ccccc1 [Compound 74, N-(4-benzyl-1-phenyl-pyrazol-3-yl)benzenesulfonamide] | < 30 |  |
| O=S(=O)(Nc1nn(-c2ccccc2)cc1-c1cccs1)c1ccccc1 [Compound 75, N-[1-phenyl-4-(2-thienyl)pyrazol-3-yl]benzenesulfonamide] | < 30 |  |
| O=S(=O)(Nc1n[nH]cc1-c1ccccc1)c1ccccc1 [Compound 77, N-(4-phenyl-1H-pyrazol-3-yl)benzenesulfonamide] | < 30 |  |
| O=S(=O)(Nc1ccnn1CC1CC1)c1ccccc1 [Compound 78, N-[2-(cyclopropylmethyl)pyrazol-3-yl]benzenesulfonamide] | < 30 |  |
| O=S(=O)(Nc1ccnn1C1CCCCC1)c1ccccc1 [Compound 79, N-(2-cyclohexylpyrazol-3-yl)benzenesulfonamide] | < 30 |  |
| Cc1ccc(-n2nc(NS(=O)(=O)c3ccccc3)cc2C(C)(C)C)cc1 [Compound 80, N-[5-tert-butyl-1-(p-tolyl)pyrazol-3-yl]benzenesulfonamide] | 30 to 60 |  |
| CC(C)Cc1cn(-c2cccc(Cl)c2)nc1NS(=O)(=O)c1ccccc1 [Compound 81, N-[1-(3-chlorophenyl)-4-isobutyl-pyrazol-3-yl]benzenesulfonamide] | < 30 |  |
| CC(C)Cc1cn(-c2ccccc2)nc1NS(=O)(=O)c1ccccc1 [Compound 82, N-(4-isobutyl-1-phenyl-pyrazol-3-yl)benzenesulfonamide] | < 30 |  |
| O=S(=O)(Nc1nn(-c2cccc(Cl)c2)cc1C1CCCCC1)c1ccccc1 [Compound 83, N-[1-(3-chlorophenyl)-4-cyclohexyl-pyrazol-3-yl]benzenesulfonamide] | < 30 |  |
| O=S(=O)(Nc1nn(-c2ccccc2)cc1C1CCCCC1)c1ccccc1 [Compound 84, N-(4-cyclohexyl-1-phenyl-pyrazol-3-yl)benzenesulfonamide] | < 30 |  |
| CC(C)=Cc1cn(-c2cccc(Cl)c2)nc1NS(=O)(=O)c1ccccc1 [Compound 85, N-[1-(3-chlorophenyl)-4-(2-methylprop-1-enyl)pyrazol-3-yl]benzenesulfonamide] | 30 to 60 | pEC50 [2]: 4.52 to 5.52 |
| C=C(C)c1cn(-c2cccc(Cl)c2)nc1NS(=O)(=O)c1ccccc1 [Compound 86, N-[1-(3-chlorophenyl)-4-isopropenyl-pyrazol-3-yl]benzenesulfonamide] | 30 to 60 | pEC50 [2]: 4.52 to 5.52 |
| O=S(=O)(Nc1nn(-c2cccc(Cl)c2)cc1C1=CCCCC1)c1ccccc1 [Compound 87, N-[1-(3-chlorophenyl)-4-(cyclohexen-1-yl)pyrazol-3-yl]benzenesulfonamide] | 30 to 60 | pEC50 [2]: 5.52 to 6.00 |
| O=S(=O)(Nc1nn(-c2cccc(Cl)c2)cc1-c1ccc(Cl)cc1)c1ccccc1 [Compound 88, N-[1-(3-chlorophenyl)-4-(4-chlorophenyl)pyrazol-3-yl]benzenesulfonamide] | < 30 |  |
| O=S(=O)(Nc1nn(-c2cccc(Cl)c2)cc1-c1ccccc1Cl)c1ccccc1 [Compound 89, N-[4-(2-chlorophenyl)-1-(3-chlorophenyl)pyrazol-3-yl]benzenesulfonamide] | < 30 |  |

| SMILES | Emax [3] [%] | other results |
| --- | --- | --- |
| COc1ccc(-c2cn(-c3cccc(Cl)c3)nc2NS(=O)(=O)c2ccccc2)cc1 [Compound 90, N-[1-(3-chlorophenyl)-4-(4-methoxyphenyl)pyrazol-3-yl]benzenesulfonamide] | < 30 | pEC50 [2]: > 6.00 |
| COc1cccc(-c2cn(-c3cccc(Cl)c3)nc2NS(=O)(=O)c2ccccc2)c1 [Compound 91, N-[1-(3-chlorophenyl)-4-(3-methoxyphenyl)pyrazol-3-yl]benzenesulfonamide] | 30 to 60 | pEC50 [2]: 5.52 to 6.00 |
| COc1ccccc1-c1cn(-c2cccc(Cl)c2)nc1NS(=O)(=O)c1ccccc1 [Compound 92, N-[1-(3-chlorophenyl)-4-(2-methoxyphenyl)pyrazol-3-yl]benzenesulfonamide] | 30 to 60 | pEC50 [2]: 5.52 to 6.00 |
| Cc1ccc(-c2cn(-c3cccc(Cl)c3)nc2NS(=O)(=O)c2ccccc2)cc1 [Compound 93, N-[1-(3-chlorophenyl)-4-(p-tolyl)pyrazol-3-yl]benzenesulfonamide] | < 30 |  |
| Cc1cccc(-c2cn(-c3cccc(Cl)c3)nc2NS(=O)(=O)c2ccccc2)c1 [Compound 94, N-[1-(3-chlorophenyl)-4-(m-tolyl)pyrazol-3-yl]benzenesulfonamide] | 30 to 60 | pEC50 [2]: 5.52 to 6.00 |
| Cc1ccccc1-c1cn(-c2cccc(Cl)c2)nc1NS(=O)(=O)c1ccccc1 [Compound 95, N-[1-(3-chlorophenyl)-4-(o-tolyl)pyrazol-3-yl]benzenesulfonamide] | < 30 |  |
| Cc1cc(C)c(-n2cc(-c3ccccc3)c(NS(=O)(=O)c3ccccc3)n2)c(C)c1 [Compound 96, N-[4-phenyl-1-(2,4,6-trimethylphenyl)pyrazol-3-yl]benzenesulfonamide] | 30 to 60 | pEC50 [2]: > 6.00 |
| C=C(C)c1cn(-c2c(C)cc(C)cc2C)nc1NS(=O)(=O)c1ccccc1 [Compound 97, N-[4-isopropenyl-1-(2,4,6-trimethylphenyl)pyrazol-3-yl]benzenesulfonamide] | < 30 |  |
| Cc1cc(C)c(-n2cc(C(C)C)c(NS(=O)(=O)c3ccccc3)n2)c(C)c1 [Compound 98] | < 30 |  |
| Cc1cc(C)c(-n2cc(Br)c(NS(=O)(=O)c3ccccc3)n2)c(C)c1 [Compound 99, N-[4-bromo-1-(2,4,6-trimethylphenyl)pyrazol-3-yl]benzenesulfonamide] | < 30 |  |
| Cc1ccc(-n2nc(NS(=O)(=O)c3ccccc3)cc2C)cc1 [Compound 100, N-[5-methyl-1-(p-tolyl)pyrazol-3-yl]benzenesulfonamide] | < 30 |  |
| Cc1ccc(-c2cn(Cc3ccccc3)nc2NS(=O)(=O)c2ccccc2)cc1 [Compound 101, N-[1-benzyl-4-(p-tolyl)pyrazol-3-yl]benzenesulfonamide] | 30 to 60 | pEC50 [2]: 5.52 to 6.00 |
| O=S(=O)(Nc1ccn(Cc2ccccc2)n1)c1ccccc1 [Compound 102, N-(1-benzylpyrazol-3-yl)benzenesulfonamide] |  | Emax [1]: < 30% |
| O=S(=O)(Nc1nn(Cc2ccccc2)cc1C1CCCCC1)c1ccccc1 [Compound 103, N-(1-benzyl-4-cyclohexyl-pyrazol-3-yl)benzenesulfonamide] | < 30 |  |
| CC(C)=Cc1cn(Cc2ccccc2)nc1NS(=O)(=O)c1ccccc1 [Compound 104, N-[1-benzyl-4-(2-methylprop-1-enyl)pyrazol-3-yl]benzenesulfonamide] | < 30 |  |
| C=C(C)c1cn(Cc2ccccc2)nc1NS(=O)(=O)c1ccccc1 [Compound 105, N-(1-benzyl-4-isopropenyl-pyrazol-3-yl)benzenesulfonamide] | < 30 |  |
| O=S(=O)(Nc1nn(Cc2ccccc2)cc1C1=CCCCC1)c1ccccc1 [Compound 106, N-[1-benzyl-4-(cyclohexen-1-yl)pyrazol-3-yl]benzenesulfonamide] | < 30 |  |
| O=S(=O)(Nc1nn(Cc2ccccc2)cc1-c1ccccc1)c1ccccc1 [Compound 107, N-(1-benzyl-4-phenyl-pyrazol-3-yl)benzenesulfonamide] | < 30 |  |
| O=S(=O)(Nc1nn(Cc2ccccc2)cc1-c1ccc(Cl)cc1)c1ccccc1 [Compound 108, N-[1-benzyl-4-(4-chlorophenyl)pyrazol-3-yl]benzenesulfonamide] | 30 to 60 |  |
| O=S(=O)(Nc1nn(Cc2ccccc2)cc1-c1cccc(Cl)c1)c1ccccc1 [Compound 109, N-[1-benzyl-4-(3-chlorophenyl)pyrazol-3-yl]benzenesulfonamide] | < 30 |  |
